Test results published in US11053226B2, “KRAS G12C inhibitors and methods of using the same” (Amgen Inc., priority 2018, dated 2021).
Where two headings read alike, the source gives them in different places.

What was measured:
[1] = tested on: Phosphorylation of ERK1/2 in MIA PaCa-2 cells; test: Phospho-ERK1/2 MSD Assay; assay type: cell-based; settings: MiaPaCa-2 cells
Description: (§1) For compounds in Table 9, the following assay conditions were employed:
Phospho-ERK1/2 MSD Assay:
Sixteen hours prior to compound treatment, MIA PaCa-2 cells were seeded in 96-well cell culture plates at a density of 25,000 cells/well and incubated at 37° C., 5% CO2. […] Following compound treatment, cells were stimulated with 10 ng/mL EGF (Roche 11376454001) for 10 min, washed with ice-cold Dulbecco's phosphate-buffered saline, no Ca^2+ or Mg^2+ (ThermoFisher Scientific 14190144), and then lysed in RIPA buffer (50 mM Tris-HCl pH 7.5, 1% Igepal, 0.5% sodium deoxycholate, 150 mM NaCl, and 0.5% sodium dodecyl sulfate) containing protease inhibitors (Roche 4693132001) and phosphatase inhibitors (Roche 4906837001). […] Assay plates were read on a Meso Scale Discovery Sector Imager 6000, and data were analyzed using a 4-parameter logistic model to calculate IC50 values.

[2] = tested on: Phosphorylation of ERK1/2 in A549 cells; test: Phospho-ERK1/2 MSD Assay (A549); assay type: cell-based
[3] = biological target: GDP-bound KRAS protein (aa 1-169), containing both G12C and C118A amino acid substitutions (Homo sapiens (Human), UniProt P01116, C118A/G12C); test: Coupled Nucleotide Exchange Assay; assay type: biochemical
Description: as §1
Coupled Nucleotide Exchange Assay:
The assay plates were then read on a PerkinElmer EnVision Multilabel Reader, using AlphaScreen® technology, and data were analyzed using a 4-parameter logistic model to calculate IC50 values.

[4] = Homo sapiens, MIA PaCa-2, read-out: pERK IC50 (4 h), 4 h compound treatment
[5] = Homo sapiens, read-out: pERK IC50 (4 h), 4 h compound treatment
[6] = read-out: Coupled Exchange IC50 (2 h), 2 h compound pre-incubation
[7] = read-out: Coupled Exchange IC50 (20 h), 20 h compound pre-incubation
[8] = Homo sapiens, MIA PaCa-2, 4 h, read-out: pERK IC50 (4 h, MiaPaCa-2), 4 h compound treatment
[9] = Homo sapiens, A549, 4 h, read-out: pERK IC50 (4 h, A549), 4 h compound treatment
[10] = read-out: pERK IC50 (4 h, MiaPaCa-2), 4 h compound treatment
[11] = read-out: pERK IC50 (4 h, A549), 4 h compound treatment
[12] = read-out: Coupled Exchange IC50 (5 min), 5 min compound pre-incubation

Sequence of GDP-bound KRAS protein (aa 1-169), containing both G12C and C118A amino acid substitutions (P01116 other isoform, or with tags, fused parts or gaps G12C/C118A): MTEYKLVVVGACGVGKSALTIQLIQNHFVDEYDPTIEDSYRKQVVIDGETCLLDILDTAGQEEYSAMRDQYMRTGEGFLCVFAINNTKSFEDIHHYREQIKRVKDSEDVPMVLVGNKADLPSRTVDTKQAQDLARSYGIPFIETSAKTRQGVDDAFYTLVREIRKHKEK

Row | Structure (SMILES) | IC50 [1, 4] [µM] | IC50 [2, 5] [µM] | IC50 [3, 6] [µM] | IC50 [3, 7] [µM] | IC50 [1, 8] [µM] | IC50 [2, 9] [µM] | IC50 [1, 10] [µM] | IC50 [2, 11] [µM] | IC50 [3, 12] [µM]
1 | C=CC(=O)N1CC(NC(=O)Cn2cc(I)c3ccc(-c4ccccc4Cl)cc32)C1 [Example 150] | 50.8 | > 100 | 2.92 | 0.59 | – | – | – | – | –
2 | C=CC(=O)N1CC(NC(=O)Cn2cc(C(=O)N3CCc4c(Br)cc(C)cc4C3)c3cc(Br)cc(C)c32)C1 [Example 80] | – | – | 0.33 | 0.15 | 12.2 | 25.7 | – | – | –
3 | C=CC(=O)N1CC(NC(=O)Cn2c3c(c4cc([N+](=O)[O-])ccc42)CCCCC3)C1 [Example 135] | – | – | 4.25 | 0.63 | – | – | 38.7 | > 100 | –
4 | C=CC(=O)N1CC(NC(=O)Cn2cc(C(=O)N3CCc4c(C)cccc4C3)c3cc(Br)ccc32)C1 [Example 86] | – | – | 0.68 | 0.17 | 14.1 | > 100 | – | – | –
5 | C=CC(=O)N1CC(NC(=O)Cn2c(C3CC3)c(C(=O)N3CCc4c(ccnc4OC)C3)c3cc(Cl)cc(C)c32)C1 [Example 1-4, 2-(5-Chloro-2-cyclopropyl-3-((5-methoxy-3,4-dihydro-2,6-naphthyridin-2(1H)-yl)carbonyl)-7-methyl-1H-indol-1-yl)-N-(1-(2-propenoyl)-3-azetidinyl)acetamide] | – | – | 0.08 | 0.01 | 0.15 | > 100 | – | – | 0.27
6 | C=CC(=O)N1CC(NC(=O)Cn2c(C)c(-c3cccnc3OC(C)C)c3cc(Br)ccc32)C1 [Example 115] | 28.1 | > 100 | 2.78 | – | – | – | – | – | –
7 | C=CC(=O)N1CC(NC(=O)Cn2cc(CNCc3ccccc3)c3cc(Br)ccc32)C1 [Example 136] | 39.6 | 36.6 | 9.85 | 1.91 | – | – | – | – | –
8 | C=CC(=O)N1CC(NC(=O)Cn2cc(C(=O)N(C)CC(=O)Nc3ccc(Cl)c(C(F)(F)F)c3)c3cc(Br)ccc32)C1 [Example 158] | – | – | 0.44 | 0.16 | 53.9 | > 100 | – | – | –
9 | C=CC(=O)N1CC(NC(=O)Cn2c(C)c(C(=O)N3[C@H](C)CN(c4ccc(C#N)cn4)C[C@H]3C)c3cc(Br)ccc32)C1 [Example 22] | – | – | 0.19 | – | 2.02 | > 100 | – | – | –
10 | C=CC(=O)N1CC(NC(=O)Cn2ccc3cc(Cl)cc(Cl)c32)C1 [Example 165] | > 100 | > 100 | 13.2 | 2.65 | – | – | – | – | –
11 | C=CC(=O)N1CC(NC(=O)Cn2c(C)c(C(=O)N3CCc4ccccc4[C@H]3C)c3cc(Br)cc(C)c32)C1 [Example 2-2-1, 2-(5-Bromo-2,7-dimethyl-3-(((1R)-1-methyl-3,4-dihydro-2(1H)-isoquinolinyl)carbonyl)-1H-indol-1-yl)-N-(1-(2-propenoyl)-3-azetidinyl)acetamide] | – | – | 0.16 | – | – | – | 0.56 | 47 | –
12 | C=CC(=O)N1CC(N2CCC(n3cc(I)c4cc(Cl)ccc43)C2=O)C1 (centres unmarked) [Example 90] | 16 | > 100 | 4.3 | 0.48 | – | – | – | – | 61.1
13 | C=CC(=O)N1CC(NC(=O)Cn2c(C)c(C(=O)N3CCc4c(ccnc4OC)C3)c3cc(Br)ccc32)C1 [Example 12] | – | – | 0.51 | 0.17 | 1.65 | > 100 | – | – | –
14 | C=CC(=O)N1CC(N(C)C(=O)Cn2c(C)c(C(=O)N3CCN(c4ccc(C)cn4)CC3)c3cc(Cl)cc(C)c32)C1 [Example 53] | – | – | 0.85 | 0.18 | 5 | > 100 | – | – | –
15 | C=CC(=O)N1CC(NC(=O)Cn2c(C)c(-c3cnccc3C(C)C)c3cc(Cl)ccc32)C1 [Example 5-1, 2-(5-Chloro-2-methyl-3-(4-(2-propanyl)-3-pyridinyl)-1H-indol-1-yl)-N-(1-(2-propenoyl)-3-azetidinyl)acetamide] | 1.32 | > 100 | 0.78 | – | – | – | – | – | –
16 | C=CC(=O)N1CC(NC(=O)Cn2cc(I)c3cc(Cl)ccc32)C1 [Example 139] | 40.6 | > 100 | 4.15 | 0.52 | – | – | – | – | > 250
17 | C=CC(=O)N1CC(NC(=O)Cn2c(CC3CC3)c(C(=O)N3CCc4c(cccc4OC)C3)c3cc(Cl)cc(C)c32)C1 [Example 1-5, 2-(5-Chloro-2-(cyclopropylmethyl)-3-((5-methoxy-3,4-dihydro-2(1H)-isoquinolinyl)carbonyl)-7-methyl-1H-indol-1-yl)-N-(1-(2-propenoyl)-3-azetidinyl)acetamide] | – | – | 0.08 | – | 0.15 | > 100 | – | – | –

Row | Structure (SMILES) | IC50 [1, 4] [µM] | IC50 [2, 5] [µM] | IC50 [3, 6] [µM] | IC50 [3, 7] [µM] | IC50 [1, 8] [µM] | IC50 [2, 9] [µM] | IC50 [1, 10] [µM] | IC50 [2, 11] [µM] | IC50 [3, 12] [µM]
18 | C=CC(=O)N1CC(NC(=O)Cn2c3c(c4cc(Br)ccc42)CN(C(=O)OCc2ccccc2)CC3)C1 [Example 141] | 42.4 | 19.3 | 7.25 | 1.51 | – | – | – | – | –
19 | C=CC(=O)N1CC(NC(=O)Cn2c3ccc(Br)cc3c3ccc(Oc4ccccn4)nc32)C1 [Example 57] | 6.81 | > 100 | 0.99 | 0.14 | – | – | – | – | –
20 | C=CC(=O)N1CC(NC(=O)Cn2c3c(c4cc(Br)ccc42)CCCC3)C1 [Example 160] | 58.3 | > 100 | 4.95 | 1.07 | – | – | – | – | –
21 | C=CC(=O)N1CC(NC(=O)Cn2cc(-c3ccccc3OC)c3cc(Br)ccc32)C1 [Example 151] | 51.2 | 14.6 | 4.33 | 0.92 | – | – | – | – | –
22 | C=CC(=O)N1CC(N(C)C(=O)Cn2cc(C(=O)N3CCc4c(cccc4OC)C3)c3cc(Br)ccc32)C1 [Example 107] | – | – | 0.59 | 0.18 | 23.1 | > 100 | – | – | –
23 | C=CC(=O)N1CC(NC(=O)Cn2cc(C(=O)NCCC(=O)Nc3cccc4ccccc34)c3cc(Br)ccc32)C1 [Example 170] | – | – | 3 | 0.65 | > 100 | > 100 | – | – | –
24 | C=CC(=O)N1CC(NC(=O)Cn2cc(C(=O)NCCc3ccc(Cl)cc3Cl)c3cc(Br)cc(C)c32)C1 [Example 162] | – | – | 0.76 | 0.26 | 81.5 | > 100 | – | – | –
25 | C=CC(=O)N1CC(NC(=O)Cn2cc(I)c3cc(Br)ccc32)C1 [Example 85] | 14 | > 100 | 3.84 | 0.49 | – | – | – | – | 23.6
26 | C=CC(=O)N1CC(NC(=O)Cn2c3ccccc3c3cc(Br)ccc32)C1 [Example 71] | 10.6 | > 100 | 3.51 | 0.52 | – | – | – | – | –
27 | C=CC(=O)N1CC(NC(=O)Cn2cc(C3CC3)c3ccc(-c4ccccc4Cl)cc32)C1 [Example 146] | 47.1 | 74.2 | 3.8 | 0.74 | – | – | – | – | –
28 | C=CC(=O)N1CC(NC(=O)Cn2cc(C(=O)N3CCc4c(ccnc4OC)C3)c3c(Cl)c(Cl)ccc32)C1 [Example 15] | – | – | 0.22 | – | 1.79 | > 100 | – | – | –
29 | C=CC(=O)N1CC(NC(=O)Cn2c(C(=O)OC)c(I)c3cc(Br)ccc32)C1 [Example 111] | 25.4 | > 100 | 1.98 | 0.35 | – | – | – | – | –
30 | C=CC(=O)N1CC(NC(=O)Cn2c(C)c(-c3cccc4ncccc34)c3cc(Cl)ccc32)C1 [Example 147] | 49.6 | > 100 | 2.6 | 0.52 | – | – | – | – | –
31 | C=CC(=O)N1CC(NC(=O)Cn2cc(C(=O)N3CCc4c(Br)cc(C)cc4C3)c3cc(Cl)cc(Cl)c32)C1 [Example 92] | – | – | 0.39 | 0.18 | 16.5 | > 100 | – | – | –
32 | C=CC(=O)N1CC(NC(=O)Cn2c(C)c(C(=O)N3CCc4ccccc4[C@@H]3C)c3cc(Br)cc(C)c32)C1 [Example 2-2-2, 2-(5-Bromo-2,7-dimethyl-3-(((1S)-1-methyl-3,4-dihydro-2(1H)-isoquinolinyl)carbonyl)-1H-indol-1-yl)-N-(1-(2-propenoyl)-3-azetidinyl)acetamide] | – | – | 0.42 | – | 3.01 | 61 | – | – | –
33 | C=CC(=O)N1CC(NC(=O)Cn2c(C)c(C(=O)N3CCc4c(cccc4OC)C3)c3cc(C)cc(C)c32)C1 [Example 6] | – | – | 0.34 | – | 1.12 | > 100 | – | – | –
34 | C=CC(=O)N1CC(N(C)C(=O)Cn2c(CC)c(C(=O)N3CCc4c(ccnc4OC)C3)c3cc(Cl)cc(C)c32)C1 [Example 4-1, 2-(5-Chloro-2-ethyl-3-((5-methoxy-3,4-dihydro-2,6-naphthyridin-2(1H)-yl)carbonyl)-7-methyl-1H-indol-1-yl)-N-methyl-N-(1-(2-propenoyl)-3-azetidinyl)acetamide] | – | – | 0.12 | – | 0.13 | > 100 | – | – | –
